From patent publication US20160187320A1, “ASSAY FOR SCREENING COMPOUNDS THAT SELECTIVELY DECREASE THE NUMBER OF CANCER STEM CELLS” (THE ROGOSIN INSTITUTE, priority 2011, published 2016)

Columns and labels:
[1] = tested on: Docetaxel resistant (DR) cells (DU145-DR, 22RV1-DR); test: Cross-resistance of Docetaxel resistant (DR) cells; type: cell-based, human; conditions: data not shown
[2] = tested on: DU145-CK19 promoter-GFP stable cells; test: Flow cytometry of GFP populations surviving Docetaxel; type: cell-based, human; conditions: Docetaxel 10 nM, 48 hours
Description: CK19 gene promoter region was amplified from DU145 cells genomic DNA by PCR with specific primer sets (Fw 5′-[…]-3′ (SEQ ID NO: 1) and Rv 5′-[…]-3′ (SEQ ID NO: 2)) as described previously (Tripathi et al., 2005. The PCR products were digested with Ase I and Hind III and cloned into pEGFPN1 vector (Clontech, Mountain View, Calif.) previously digested with the same enzymes. As a result, the CMV promoter was removed from the original vector and the GFP expression was under control of the CK19 promoter. The final construct was confirmed by digestion and sequencing analysis. DU145 cells were transfected with pCK19-GFP construct using Lipofectamine Plus 2000 (Invitrogen). After 24 hours, medium was replaced with fresh medium and stably expressing cells selected in the presence of G418 (Invitrogen). Positive clones were confirmed by direct microscopy and immunofluorescence and also by PCR amplification of GFP coding region using specific primers (Fw 5′-[…]-3′ (SEQ ID NO: 3) and Rv 5′-[…]-3′ (SEQ ID NO: 4)).
Flow cytometry analysis of subpopulations of prostate cancer cells were carried out following standard procedures. Intracellular CK19 and CK18 expression was performed in single-cell suspensions fixed with 70% ethanol, whereas the expression of cell surface HLA class I and GFP was determined in fresh cell samples (without fixation). […] A minimum of 10^4 cells were measured per sample.

[3] = tested on: 22RV1 cells; test: Cell viability assay (MTS), parental 22RV1; type: cell-based; conditions: Homo sapiens; parental 22RV1, 72 hours; read-out: Docetaxel IC50
Protocol: (§1) Human hormone-independent prostate cancer cell lines, DU-145 and 22RV1, were obtained from American Type Culture Collection (ATCC) and maintained in RPMI 1640 medium (Gibco, Invitrogen Corp., Carlsbad, Calif.) supplemented with 10% FBS without antibiotics. Cells were grown at 37° C. in a humidified atmosphere with 5% CO2. DU145 and 22RV1 cells were selected in order to generate a prostate cancer Docetaxel resistance model. […] Thus, the generation of acquired Docetaxel resistance in these two phenotypically distinct cell lines facilitated an approach to study the molecular processes involved in the acquisition of Docetaxel resistance. Docetaxel resistant clones, DU-145-DR and 22RV1-DR, were selected by culturing cells with Docetaxel in a dose-escalation manner. Initial culture was at 5 nM Docetaxel. […]
(§2) Cell viability was analyzed using the Cell titer 96 Aquos Non-Reactive Cell Proliferation Assay (MTS) kit (Promega Corp., Madison, Wis.). […] After 72 hours, color absorbance was measured on a microplate spectrophotometer (Molecular Dynamics) at 450 nm (test wavelength) and 620 nm (reference wavelength). […] Cells were then fixed with 4% paraformaldehyde in PBS, stained with crystal violet solution and formed colonies were visually counted.

[4] = tested on: DU145-CK19 promoter-GFP stable cells sorted by GFP/HLA class I; test: Colony formation assay of GFP/HLA class I sorted cells under Docetaxel; type: cell-based, human; conditions: Docetaxel 10 nM continuously
Protocol: (§3) Cell viability was analyzed using the Cell titer 96 Aquos Non-Reactive Cell Proliferation Assay (MTS) kit (Promega Corp., Madison, Wis.). Cells were seeded at a density of 10^4 in 96-well culture dishes and 24 hours later medium was removed and replaced with new medium alone (control) or medium containing drugs. After 72 hours, color absorbance was measured on a microplate spectrophotometer (Molecular Dynamics) at 450 nm (test wavelength) and 620 nm (reference wavelength). The percentage of surviving cells was estimated by dividing the A 450 nm-A 620 nm of treated cells by the A 450 nm-A 620 nm of control cells. Clonogenic survival assays in response to drug treatment were performed by plating 10^3 cells in 35 mm culture dishes. After 24 hours, cells were left untreated (control) or treated with drugs. Next day, medium was changed and the cells kept growing in fresh medium without any drug or under continuous exposure to drugs. For these continuous exposure experiments, medium plus drugs were replaced every 3 days until clones of drug-resistant cells appeared. Cells were then fixed with 4% paraformaldehyde in PBS, stained with crystal violet solution and formed colonies were visually counted.

[5] = tested on: 22RV1-DR and DU145-DR (resistant) cells; test: Colony formation assay, Docetaxel resistant cells; type: cell-based, human; conditions: continuous Docetaxel for 21 days
Protocol: as §3

[6] = tested on: DU145 cells; test: Cell viability assay (MTS), parental DU145; type: cell-based; conditions: Homo sapiens, DU-145; parental DU145, 72 hours; read-out: Docetaxel IC50
Protocol: as §1, §2

[7] = tested on: 22RV1 and DU145 parental (sensitive) cells; test: Colony formation assay, Docetaxel sensitive parental cells; type: cell-based, human; conditions: continuous Docetaxel for 21 days (25 nM in 22RV1, 5 nM in DU145)
Protocol: as §3

[8] = tested on: DU145-DR cells; test: Cell viability assay (MTS), Docetaxel resistant DU145-DR; type: cell-based, human; conditions: for IC50: Homo sapiens
Protocol: as §1, with “Docetaxel. After the sensitive clones were no longer present and the surviving DU-145 and 22RV1 cells repopulated the flask, the concentration of Docetaxel was increased to 10 nM and subsequently to 25 nM, 50 nM, 100 nM and 250 nM. 22RV1-DR cells were further exposed to 500 nM Docetaxel. After exposure to each increasing dose of Docetaxel, the remaining surviving cells were maintained in culture medium containing the last selection escalating dose of Docetaxel. The last drug selection concentration at which the cells were exposed was 250 nM for DU-145-DR and 500 nM for 22RV1-DR, in order to avoid reversibility of the acquired Docetaxel resistance phenotype. The process of acquired drug resistance took 9 months for DU-145-DR and 6.5 months for 22RV1-DR.” for “Docetaxel.”
as §2

[9] = tested on: 22RV1-DR cells; test: Cell viability assay (MTS), Docetaxel resistant 22RV1-DR; type: cell-based, human; conditions: for IC50: Homo sapiens
Protocol: as §1, with “Docetaxel. After the sensitive clones were no longer present and the surviving DU-145 and 22RV1 cells repopulated the flask, the concentration of Docetaxel was increased to 10 nM and subsequently to 25 nM, 50 nM, 100 nM and 250 nM. 22RV1-DR cells were further exposed to 500 nM Docetaxel. After exposure to each increasing dose of Docetaxel, the remaining surviving cells were maintained in culture medium containing the last selection escalating dose of Docetaxel. The last drug selection concentration at which the cells were exposed was 250 nM for DU-145-DR and 500 nM for 22RV1-DR, in order to avoid reversibility of the acquired Docetaxel resistance phenotype. The process of acquired drug resistance took 9 months for DU-145-DR and 6.5 months for 22RV1-DR.” for “Docetaxel.”
as §2

Structure (SMILES): N.N.[Cl][Pt][Cl] [Cisplatin]
- cross-resistance of Docetaxel resistant cells [1]: cross-resistance

Structure (SMILES): CC(=O)O[C@@]12CO[C@@H]1C[C@H](O)[C@@]1(C)C(=O)[C@H](O)C3=C(C)[C@@H](OC(=O)[C@H](O)[C@@H](NC(=O)OC(C)(C)C)c4ccccc4)C[C@@](O)([C@@H](OC(=O)c4ccccc4)[C@H]21)C3(C)C [Docetaxel]
- GFP-negative phenotype, % of the total population after treatment ([2]; initially 6.4±4.3%): 73.1±10.2%
- GFP-positive phenotype, % of the total cell population after treatment ([2]; initially 87.5±10.4%): 28.3±10.6%
- IC50 [3]: 25 nM
- clone formation under continuous exposure [4]: only tumour cells with a GFP-negative/HLA class I-negative phenotype were able to form clones
- colony formation [5]: colonies were observed
- IC50 [6]: 5 nM
- colony formation [7]: No colonies were observed
- fold increase of Docetaxel IC50 ([8]; DU145-DR versus DU145): 200 fold
- IC50 ([8]; DU145-DR acquired resistant cells, 72 hours): 1000 nM
- IC50 ([8]; DU145-DR after 12 weeks of drug withdrawal): 25 nM
- fold increase of Docetaxel IC50 ([9]; 22RV1-DR versus 22RV1): 400 fold
- IC50 ([9]; 22RV1-DR acquired resistant cells, 72 hours): 10000 nM
- IC50 ([9]; 22RV1-DR after 12 weeks of drug withdrawal): 50 nM

Structure (SMILES): COc1cccc2c1C(=O)c1c(O)c3c(c(O)c1C2=O)C[C@@](O)(C(=O)CO)C[C@@H]3O[C@H]1C[C@H](N)[C@H](O)[C@H](C)O1 [Doxorubicin]
- cross-resistance of Docetaxel resistant cells [1]: cross-resistance

Structure (SMILES): O=C1c2c(O)ccc(O)c2C(=O)c2c(NCCNCCO)ccc(NCCNCCO)c21 [Mitoxantrone]
- cross-resistance of Docetaxel resistant cells [1]: cross-resistance

Structure (SMILES): CC(=O)O[C@H]1C(=O)[C@@]2(C)[C@H]([C@H](OC(=O)c3ccccc3)[C@]3(O)C[C@H](OC(=O)[C@H](O)[C@@H](NC(=O)c4ccccc4)c4ccccc4)C(C)=C1C3(C)C)[C@]1(OC(C)=O)CO[C@@H]1C[C@@H]2O [Paclitaxel]
- cross-resistance of Docetaxel resistant cells [1]: cross-resistance

Structure (SMILES): CCC1=C[C@@H]2CN(C1)Cc1c([nH]c3ccccc13)[C@@](C(=O)OC)(c1cc3c(cc1OC)N(C)[C@H]1[C@@](O)(C(=O)OC)[C@H](OC(C)=O)[C@]4(CC)C=CCN5CC[C@]31[C@@H]54)C2 [Vinorelbine]
- cross-resistance of Docetaxel resistant cells [1]: cross-resistance
